Experimental data reported in patent publication US7667044B2, “Compounds for the treatment of neurological disorders” (Probiodrug AG, priority 2003, dated 2010).

Columns and labels:
[1] = target: T1, Recombinant human prolyl oligopeptidase (Homo sapiens, UniProt P48147); experiment: Determination of IC50- and Ki-values of PEP-inhibitors, chromogenic substrate Cbz-Gly-L-Pro-pNA; format: biochemical; conditions: for Ki: 4 substrate and 7 inhibitor concentrations, competitive inhibition fit, pH 7.6, 30° C.; for IC50: substrate 0.15 mM Cbz-Gly-L-Pro-pNA, HEPES buffer pH 7.6, 30° C.
T1 construct: made in house; host or cells: E. coli
T1 sequence (P48147 1-710): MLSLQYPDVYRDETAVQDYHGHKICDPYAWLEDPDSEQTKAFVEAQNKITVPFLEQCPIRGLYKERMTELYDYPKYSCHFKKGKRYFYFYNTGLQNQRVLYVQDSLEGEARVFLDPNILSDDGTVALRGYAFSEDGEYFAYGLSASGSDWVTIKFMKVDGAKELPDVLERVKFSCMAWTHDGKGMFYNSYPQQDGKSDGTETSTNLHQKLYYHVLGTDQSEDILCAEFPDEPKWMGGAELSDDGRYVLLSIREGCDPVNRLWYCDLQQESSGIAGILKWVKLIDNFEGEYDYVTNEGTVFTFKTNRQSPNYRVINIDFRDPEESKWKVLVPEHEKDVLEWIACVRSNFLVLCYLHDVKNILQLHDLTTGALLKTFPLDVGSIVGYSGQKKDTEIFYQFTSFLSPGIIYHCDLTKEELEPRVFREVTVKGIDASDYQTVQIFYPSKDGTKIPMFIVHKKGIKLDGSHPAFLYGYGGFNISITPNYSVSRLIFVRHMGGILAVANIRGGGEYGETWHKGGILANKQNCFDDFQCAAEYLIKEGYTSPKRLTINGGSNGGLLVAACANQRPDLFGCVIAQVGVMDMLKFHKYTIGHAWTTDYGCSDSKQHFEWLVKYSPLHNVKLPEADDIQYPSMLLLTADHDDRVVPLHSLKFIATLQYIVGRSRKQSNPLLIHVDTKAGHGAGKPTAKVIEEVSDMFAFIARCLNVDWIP
Description: Recombinant human prolyl oligopeptidase was used for measurement. Recombinant expression was performed in E. coli under standard conditions as described elsewhere in the state of the art.
For activity measurements the chromogenic substrate Cbz-Gly-L-Pro-pNA was used in HEPES buffer pH 7.6 containing 50 mM HEPES, 200 mM NaCl, 1 mM EDTA, 1 mM DTT, 0.006% Brij35. Measurements were carried out at 30° C. Release of pNA were monitored continuously at 405 nm.
IC50 values were calculated using non-linear regression to a 4-parameter equation (Prism 4.0, GraphPad).
Calculations were performed by multiple non-linear regression analysis to the equation for competitive inhibition using GraFit 5.0 Software (Erithacus Software).

human glial U-343 cells = experiment: IL-6 ELISA, basal secretion of IL-6 into conditioned medium; format: cell-based; conditions: inhibitor 20 μM, 24 hours, serum-free medium, untreated = 100%, read-out: Extracellular IL-6 concentration, % of untreated cells
Description: To analyze basal secretion of IL-6, human glial U-343 cells were cultured in 6 well plates (1.5×10^6 cells/well, Greiner) and treated with specific PEP inhibitors as indicated (20 μM each) for 24 hours in serum-free D-MEM medium (invitrogen). Aliquots of 40 μl conditioned medium were used to quantify the amount of secreted IL-6 by an human-specific IL-6 ELISA (Biosource) following the manufacturer's instructions. All data were obtained in quadruplicate. For the calculation of the IL-6 concentration in the cell culture medium after PEP-inhibitor treatment, the basal IL-6 concentration of the cell culture medium of untreated cell samples was set to 100%. The results of the measurement of the IL-6 concentration with PEP-inhibitor treated cells are presented as % of the untreated cell samples.

[2] = system: human neuroblastoma SH-SY5Y cells; experiment: β-Amyloid ELISA, secreted β-amyloid peptides in conditioned medium; format: cell-based; conditions: Aβ 1-42 (FIG. 2), inhibitor 20 μM, 24 hours, untreated = 100%, read-out: Extracellular Aβ-concentration, % of control
Description: The human glioma cell line, U-343 and the human neuroblastoma cell line, SH-SY5Y were maintained in Dulbecco's modified Eagle's medium (DMEM) containing 10% fetal bovine serum (Gibco BRL, Karlsruhe, Germany) and incubated at 37° C. in a 5% CO2 atmosphere. Culture media contained in general 60 μg/ml gentamycin (Gibco BRL, Karlsruhe, Germany).
To quantify intracellular and extracellular concentrations of β-amyloid peptides, 1-40 and 142, U-343 and SH-SY5Y cells were cultured in 6 well plates (1.5×10^6 cells/well) and treated with specific PEP inhibitors (20 μM each) for 24 hours. For quantitation of secreted β-amyloid peptides the conditioned medium was collected and concentrated by lyophylisation. Likewise, after determination of the cell numbers/well (casy cell counter I, Schärfe System, Reutlingen, Germany), cells were lyzed with cell extraction buffer (Biosource, Solingen, Germany) according to the manufacturer's protocol. The protein concentration was determined by the method of Bradford (1976). Aliquots of 100 μl were used to quantify β-amyloid peptides 1-40 and 1-42 in quadruplicate by ELISA, (IBL, Hamburg, Germany) following the manufacturer's instructions. All obtained intracellular and extracellular concentrations were normalized to cell numbers and protein concentration, respectively.
For the calculation of the concentration of β-amyloid peptides 1-40 and 1-42 in the cell culture medium after PEP-inhibitor treatment, the basal concentration of β-amyloid peptides 1-40 and 1-42 in the cell culture medium of untreated cell samples was set to 100%. The results of the measurement of the concentration of β-amyloid peptides 1-40 and 1-42 with PEP-inhibitor treated cells are presented as % of the untreated cell samples.

| Compound | Ki [1] [nM] | IC50 [1] [nM] | activity at 20 µM (human glial U-343 cells) [%] | activity at 20 µM [2] [%] |
| --- | --- | --- | --- | --- |
| O=C(N[C@H](Cc1ccccc1)C(=O)N1CCCC1C(=O)c1nc2ccccc2s1)OCc1ccccc1 (stereo partly drawn) [Example 1, 2-[Cbz-L-Phe-L-Pro]Benzothiazole] | 0.057 | 6 | 14.3 | 447 |
| C[C@@H](NC(=O)OCc1ccccc1)C(=O)N1CCC[C@H]1C(=O)c1nc2ccccc2s1 [Example 2, 2-[Cbz-L-Ala-L-Pro]Benzothiazole] | 0.033 | 0.12 | 20.1 | 123 |
| O=C(N[C@@H](Cc1ccccc1)C(=O)N1CCC[C@H]1C(=O)c1nccs1)OCc1ccccc1 [Example 4, 2-[Cbz-L-Phe-L-Pro]Thiazole] | 6.8 | 15 | 14.6 | 519 |
| N=C(N)NCCC[C@H](NC(=O)OCc1ccccc1)C(=O)N1CCC[C@H]1C(=O)c1nc2ccccc2s1 [Example 5, 2-[Cbz-L-Arg-L-Pro]Benzothiazole] | 3.2 | 5.4 | 109 | 94 |
| C[C@H](NC(=O)OCc1ccccc1)C(=O)N1CCC[C@H]1C(=O)c1nccs1 [Example 10, 2-[Cbz-L-Ala-L-Pro]Thiazole] | 2.6 | 4.3 | 66 | 157 |

Further lines, with some results ahead:

| Ki [1] [nM] | IC50 [1] [nM] | Compound | activity at 20 µM (human glial U-343 cells) [%] | activity at 20 µM [2] [%] |
| --- | --- | --- | --- | --- |
| – | 1400 | C[C@H](NC(=O)[C@@H](Cc1ccccc1)NC(=O)OCc1ccccc1)C(=O)c1nc2ccccc2s1 [Example 3, 2-[Cbz-L-Phe-L-Ala]Benzothiazole] | 35.2 | 546 |
| 12 | 17 | O=C(O)C[C@H](NC(=O)OCc1ccccc1)C(=O)N1CCC[C@H]1C(=O)c1nc2ccccc2s1 [Example 6, 2-[Cbz-L-Asp-L-Pro]Benzothiazole] | 58 | 96.2 |
| 8.2 | 9.7 | C=CCOC(=O)N[C@@H](Cc1ccccc1)C(=O)N1CCC[C@H]1C(=O)c1nc2ccccc2s1 [Example 7, 2-[Aloc-L-Phe-L-Pro]Benzothiazole] | 17 | 528 |
| 0.038 | 2 | NCCCC[C@H](NC(=O)OCc1ccccc1)C(=O)N1CCC[C@H]1C(=O)c1nc2ccccc2s1 [Example 8, 2-[Cbz-L-Lys-L-Pro]Benzothiazole] | 160 | 87.5 |
| 6 | 29 | CC(C)(C)OC(=O)N[C@@H](Cc1ccccc1)C(=O)N1CCC[C@H]1C(=O)c1nc2ccccc2s1 [Example 9, 2-[Boc-L-Phe-L-Pro]Benzothiazole] | 33.1 | 368 |
| 2.9 | 7600 | O=C(N[C@@H](Cc1ccccc1)C(=O)N1CCC[C@H]1C(=O)c1ccc[nH]1)OCc1ccccc1 [Example 11] | 52.1 | 340 |
